Measured values from patent EP0955032A1, “COSMETIC” (Technoble Co., Ltd., priority 1996, dated 1997).
Values after ≈ are worked out from the molar mass of the structure shown.

Legend:
B16 mouse melanoma cells [1] = assay: Experiment 1: gross observation of cell pellets after culture with sample; type: cell-based; conditions: 5mM sample with 50mM c-AMP, three days; compared with blank culture
Description: (§1) Cultured B16 mouse melanoma cells (6x10^4 cells) were inoculated to Eagle's minimum essential medium (MEM) containing 5% (v/v) of fetal bovine serum (FBS) and pre-incubated for one day under 5% CO2 at 37° C before 4 days incubation with 0.1% D-glucosamine under the same conditions. Then the culture medium was replaced with one that contained 50mM of adenosine 3',5'-cyclic phosphate (c-AMP) and 5mM of 2,5-acetoxy benzoic acid as the sample, and incubated under 5% CO2 for three days at 37° C.
(§2) For comparison, a separate series of incubation was conducted under the same conditions using the same culture medium without 2,5-diacetoxy benzoic acid, and served as a blank.
After the incubation, the cells were isolated from the medium by centrifugation and made into a pellet.

in vitro = type: cell-based; conditions: rabbit, sirc-c cells
Description: Cultured rabbit cornea cells (SIRC-C) were inoculated to a 96-well microplate (Corning Ltd.) at the rate of 5000 cells/well, and pre-incubated with Eagle's MEM containing 5% (v/v) FBS for one day under 5% CO2 at 37° C. Then 0.2ml of Eagle's MEM containing 0.05% neutral red was added to the culture medium and incubation was continued for two days under the same conditions. Furthermore, 2,5-diacetoxy benzoic acid was added to the culture medium at the concentrations of 0.025% (w/v) (10.5mM), 0.05% (w/v) (21mM), 0.1% (w/v) (42mM) or 0.2% (w/v) (84mM) and incubated again for two days under 5% CO 2 at 37° C.
For comparison, cultures with 30ug/ml, 60ug/ml or 90ug/ml of sodium dodecyl sulfate instead of 2,5-diacetoxy benzoic acid and without any compound were prepared and served as the positive control and the blank respectively.
The cultures were tested by analyzing SIRC-C neutral red intake, which is one of the alternative methods of eye-irritation test, and the midpoint cytotoxicity (NR50) value was derived from the neutral red intake rate to evaluate the potential irritation effect.
It is believed that, since the neutral red intake decreases with the increase in the irritation of the compound to SIRC-C, the higher the NR50 concentration of the sample solution, the lower the irritation to the cells.

T3-tyrosinase = assay: Experiment 1: SDS electrophoresis of intracellular tyrosinase isozymes (T3); type: cell-based, mouse; conditions: 5mM sample, three days; compared with blank culture
Description: as §1, §2
(§3) Then the culture samples were analyzed by SDS electrophoresis for detection of B16 mouse melanoma intracellular tyrosinase isozymes. The conditions of the electrophoresis were: gel = polyacrylamide gel (T=7.5% w/v, C=3% w/v); buffer solution = 0.025 M tris- 0.192 M glycine buffer solution (pH = 8.3) containing 0.1% (v/v) sodium dodecyl sulfate (SDS); amount of application = 20uL per well [the mixing ratio of the buffer A (38ml of 0.125M tris-HCl buffer, 10ml of glycerin, 2g of SDS and 3mg of bromphenol blue)/culture sample = 1/1]. The concentration of the sample was adjusted to 1600ug/ml.

T1-tyrosinase = assay: Experiment 1: SDS electrophoresis of intracellular tyrosinase isozymes (T1); type: cell-based, mouse; conditions: 5mM sample, three days; compared with blank culture
Description: as §1, §2, §3

cyclooxygenase = assay: Experiment 3: inhibition of cyclooxygenase activity (oxygen consumption); type: biochemical; conditions: Fig. 3; 1.00ml of 5mM or 10mM solution; compared with blank (purified water)
Description: A mixture solution was prepared using 3.57ml of 0.2M tris-HCl buffer solution containing 20mM of L-tryptophan, 0.03ml of 40mM hemoglobin solution, 0.20ml of 400unit/ml cyclooxygenase solution, and 1.00ml of 5mM or 10mM 2.5-diacetoxy benzoic acid solution.
For comparison, a mixture using 1.00ml of purified water instead of 1.00ml of 2,5-diacetoxy benzoic acid was prepared to serve as a blank.
The mixture was incubated for five minutes at 37° C, and then 0.20ml of 0.2M tris-HCl buffer solution containing 2mM of arachidonic acid was added to the mixture for cyclooxygenase reaction. Immediately after the reaction started, the amount of dissolved oxygen in the reaction solution was measured using a biological oxygen monitor (YSI Model 5300, Meridian Instruments Far East, Ltd.). On the basis of the measurement of the dissolved oxygen level, the change in oxygen consumption attendant on the progress of the reaction time was determined.
It is believed that the less the oxygen consumption, the more the cyclooxygenase was inhibited.

B16 mouse melanoma cells [2] = assay: Experiments 2 and 5: MTT test value (cell activity); type: cell-based; conditions: for MTT value: Fig. 2, 2.5mM or 5mM DABA, 2.5mM DAPECSAM, two days, compared with DHBA cultures and blank
Description: (§4) Cultured B16 mouse melanoma cells were inoculated to a 96-well microplate (Corning Ltd.) at the rate of 8000 cells /well and pre-incubated in the Eagle's MEM containing 5% (v/v) FBS for one day under 5% CO2 at 37° C. After the pre-incubation, the culture medium was replaced with the Eagle's MEM containing 5% FBS, also containing 2.5mM or 5mM 2,5-diacetoxy benzoic acid or 2.5mM of 2-(2',5'-diacetoxy-benzoiloxy) benzoic acid, whereupon incubation was continued for two days under 5% CO2 at 37° C.
(§5) After the incubation, the medium was removed and a surfactant (Triton X-100) was mixed with the cells. Then 5mM of L-dopa or 0.2% of 3-(4,5-dimethylthiazol-2-yl)-2,5-diphenyltetrazorium bromide (MTT) was mixed for tyrosinase reaction at 37° C. Then the Dopa value and MTT test value were measured at the wavelength of 490nm and 570-630nm respectively using a microplate reader (Model 450, Bio Rad Ltd.).
(§6) For comparison, two series of culture with 2.5mM or 5mM of 2.5-dihydroxy benzoic acid instead of the compounds used in the present invention, as well as a culture without compound were prepared to serve as the positive controls and blank respectively.
(§7) It is believed that the higher the Dopa value, the higher the intracellular tyrosinase activity, while the lower the MTT test value, the lower the cultured B16 mouse melanoma cell activity.
(§8) The compound expressed by Formula A was used as an example of the 2,5-dihydroxy benzoic acid derivatives to evaluate its inhibitory effect on intracellular tyrosinase activity in accordance with the same protocol as followed in Experiment 2. [drawing 23]
(§9) However, the concentration was set to 2.5mM and the compound was dissolved in dimethyl sulfoxide before being applied to the culture medium.
(§10) The medium containing dimethyl sulfoxide was used for the blank culture. The results are shown in the graphs in Fig. 4 (Dopa levels) and Fig. 5 (MTT levels).

intracellular tyrosinase = biological target: T1, intracellular tyrosinase (Mus musculus, UniProt P11344); assay: Experiments 2 and 5: inhibition of intracellular tyrosinase activity (Dopa value); type: cell-based; conditions: for Dopa value: Fig. 1, 2.5mM or 5mM DABA, 2.5mM DAPECSAM, two days, compared with blank and with DHBA at the same concentration
T1 construct: endogenous in cells; host or cells: B16 mouse melanoma cells
T1 sequence (P11344 19-533): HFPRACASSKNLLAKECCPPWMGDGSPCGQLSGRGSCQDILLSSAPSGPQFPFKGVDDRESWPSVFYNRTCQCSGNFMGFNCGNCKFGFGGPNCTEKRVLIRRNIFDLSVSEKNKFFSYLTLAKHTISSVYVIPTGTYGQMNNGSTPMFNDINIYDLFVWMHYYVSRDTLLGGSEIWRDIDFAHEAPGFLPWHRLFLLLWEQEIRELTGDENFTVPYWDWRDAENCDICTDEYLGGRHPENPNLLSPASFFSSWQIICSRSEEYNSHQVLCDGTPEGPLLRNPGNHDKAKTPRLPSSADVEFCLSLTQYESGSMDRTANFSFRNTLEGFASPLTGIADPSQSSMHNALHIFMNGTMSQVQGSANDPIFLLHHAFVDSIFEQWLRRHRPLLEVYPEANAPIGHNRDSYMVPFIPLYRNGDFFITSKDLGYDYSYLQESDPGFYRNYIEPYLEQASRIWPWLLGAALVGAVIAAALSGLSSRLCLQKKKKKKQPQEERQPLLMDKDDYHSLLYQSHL
Description: as §4, §5, §6, §7, §8, §9, §10

For `CC(=O)Oc1ccc(OC(C)=O)c(C(=O)O)c1` [DABA, 2,5-diacetoxy benzoic acid], the “gross observation of pellets” value (B16 mouse melanoma cells [1]) was “significantly whitened”, the CC50 at 48 h (in vitro) was 1000 to 2000 µg/mL (≈ 4.2 to 8.4 mM) and the T3-tyrosinase band (T3-tyrosinase) was “disappeared”. For the same compound, the “band of T1-tyrosinase” value (T1-tyrosinase) was “significantly reduced”, the “increase in oxygen consumption attendant upon progress of reaction time” value (cyclooxygenase) was “much lower” and the MTT value (B16 mouse melanoma cells [2]) was “not much lower”. For the same compound, the Dopa value (intracellular tyrosinase) was “much lower than that of the blank” and the “inhibitory effect on intracellular tyrosinase compared with kojic acid and albutin” value (intracellular tyrosinase; within a concentration range that did not inhibit cell activity) was “the same or even higher”.
For `COC(=O)c1ccccc1OC(=O)c1cc(OC(C)=O)ccc1OC(C)=O` [DAPECSAM, 2-(2'5'-diacetoxy-benzoiloxy) benzoic acid methyl ester], the MTT value (B16 mouse melanoma cells [2]) was “not much lower” and the Dopa value (intracellular tyrosinase) was “much lower than that of the blank”.
For `COC(=O)c1ccccc1OC(=O)c1cc(OC(C)=O)ccc1OC(C)=O` [Formula A], the “cell activity (MTT levels)” value (B16 mouse melanoma cells [2]; Experiment 5, Fig. 5, 2.5mM, dissolved in dimethyl sulfoxide, blank with dimethyl sulfoxide) was “not the cell activity” and the “intracellular tyrosinase activity (Dopa levels)” value (intracellular tyrosinase; Experiment 5, Fig. 4, 2.5mM, dissolved in dimethyl sulfoxide, blank with dimethyl sulfoxide) was “significantly inhibited”.
`CCCCCCCCCCCCOS(=O)(=O)[O-].[Na+]` [SDS, sodium dodecyl sulfate, reference compound] gave a CC50 at 48 h (in vitro) of about 60 µg/mL.
